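Results reflect a 48-hour exposure of cells in 96-well plates to compound at five concentrations. At the GI50, growth is halved.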 The source made the active and inactive calls. Cut-off read from the data, not from the text of the source: active = GI50 up to about 1.1 µM and inactive = higher.
Experiments:
Assay in all cases: NCI tumour cell line growth inhibition, 48 h
LOX IMVI = tested on: LOX IMVI
OVCAR-5 = tested on: OVCAR-5
RXF 631 = tested on: RXF 631
HOP-18 = tested on: HOP-18
NCI-H460 = tested on: NCI-H460
NCI-H522 = tested on: NCI-H522
SF-539 = tested on: SF-539
HCT-15 = tested on: HCT-15
SK-MEL-5 = tested on: SK-MEL-5
U-251 = tested on: U-251
NCI-H23 = tested on: NCI-H23
786-0 = tested on: 786-0
HL-60 = tested on: HL-60
SK-MEL-2 = tested on: SK-MEL-2
HOP-62 = tested on: HOP-62
SW-620 = tested on: SW-620
OVCAR-8 = tested on: OVCAR-8
M19-MEL = tested on: M19-MEL
UACC-257 = tested on: UACC-257
COLO 205 = tested on: COLO 205
Malme-3M = tested on: Malme-3M
SF-295 = tested on: SF-295
UO-31 = tested on: UO-31
DMS-114 = tested on: DMS-114
HCC 2998 = tested on: HCC 2998
LXFL 529 = tested on: LXFL 529
M14 = tested on: M14
HOP-92 = tested on: HOP-92
RXF 393 = tested on: RXF 393
NCI-H226 = tested on: NCI-H226
SNB-19 = tested on: SNB-19
IGROV-1 = tested on: IGROV-1
HCT-116 = tested on: HCT-116
TK-10 = tested on: TK-10
K562 = tested on: K562
KM12 = tested on: KM12
MOLT-4 = tested on: MOLT-4
A549 = tested on: A549
CCRF-CEM = tested on: CCRF-CEM
SNB-78 = tested on: SNB-78
KM-20L2 = tested on: KM-20L2
EKVX = tested on: EKVX
A498 = tested on: A498
CAKI-1 = tested on: CAKI-1
SN12C = tested on: SN12C
ACHN = tested on: ACHN
SNB-75 = tested on: SNB-75
OVCAR-4 = tested on: OVCAR-4
SF-268 = tested on: SF-268
SK-OV-3 = tested on: SK-OV-3
HT-29 = tested on: HT-29
UACC-62 = tested on: UACC-62
SK-MEL-28 = tested on: SK-MEL-28
RPMI-8226 = tested on: RPMI-8226
DLD-1 = tested on: DLD-1
OVCAR-3 = tested on: OVCAR-3

For `COc1cc(CC(=O)c2ccc3c(c2)OCO3)cc(OC)c1OC`, the GI50 (LOX IMVI) was > 10 µM (inactive), the GI50 (OVCAR-5) was > 100 µM (inactive) and the GI50 (RXF 631) was 53.7 µM (inactive). For the same compound, the GI50 (HOP-18) was > 100 µM (inactive), the GI50 (NCI-H460) was 73.3 µM (inactive) and the GI50 (NCI-H522) was > 100 µM (inactive). For the same compound, the GI50 (SF-539) was > 100 µM (inactive), the GI50 (HCT-15) was over 100 µM and the GI50 (SK-MEL-5) was > 100 µM (inactive). For the same compound, the GI50 (U-251) was 46.6 µM (inactive), the GI50 (NCI-H23) was > 100 µM (inactive) and the GI50 (786-0) was > 100 µM (inactive). For the same compound, the GI50 (HL-60) was > 100 µM (inactive), the GI50 (SK-MEL-2) was > 100 µM (inactive) and the GI50 (HOP-62) was > 100 µM (inactive). The GI50 (SW-620) was 19.3 µM (inactive), the GI50 (OVCAR-8) was > 100 µM (inactive) and the GI50 (M19-MEL) was > 100 µM (inactive). The GI50 (UACC-257) was > 100 µM (inactive), the GI50 (COLO 205) was > 100 µM (inactive) and the GI50 (Malme-3M) was > 100 µM (inactive). For the same compound, the GI50 (SF-295) was > 100 µM (inactive), the GI50 (UO-31) was > 100 µM (inactive) and the GI50 (DMS-114) was 27.9 µM (inactive). The GI50 (HCC 2998) was > 100 µM (inactive), the GI50 (LXFL 529) was > 100 µM (inactive) and the GI50 (M14) was > 100 µM (inactive). The GI50 (HOP-92) was > 100 µM (inactive), the GI50 (RXF 393) was 62.5 µM (inactive) and the GI50 (NCI-H226) was > 100 µM (inactive). The GI50 (SNB-19) was > 100 µM (inactive), the GI50 (IGROV-1) was > 100 µM (inactive) and the GI50 (HCT-116) was > 100 µM (inactive). The GI50 (TK-10) was > 100 µM (inactive), the GI50 (K562) was 93.5 µM (inactive) and the GI50 (KM12) was 68.4 µM (inactive). The GI50 (MOLT-4) was > 100 µM (inactive), the GI50 (A549) was > 100 µM (inactive) and the GI50 (CCRF-CEM) was > 100 µM (inactive). The GI50 (SNB-78) was > 100 µM (inactive), the GI50 (KM-20L2) was > 100 µM (inactive) and the GI50 (EKVX) was > 100 µM (inactive). For the same compound, the GI50 (A498) was > 100 µM (inactive), the GI50 (CAKI-1) was > 100 µM (inactive) and the GI50 (SN12C) was > 100 µM (inactive). For the same compound, the GI50 (ACHN) was > 100 µM (inactive), the GI50 (SNB-75) was > 100 µM (inactive) and the GI50 (OVCAR-4) was > 100 µM (inactive). For the same compound, the GI50 (SF-268) was > 100 µM (inactive), the GI50 (SK-OV-3) was > 100 µM (inactive) and the GI50 (HT-29) was > 100 µM (inactive). The GI50 (UACC-62) was > 100 µM (inactive), the GI50 (SK-MEL-28) was > 100 µM (inactive) and the GI50 (RPMI-8226) was 44 µM (inactive). The GI50 (DLD-1) was > 100 µM (inactive) and the GI50 (OVCAR-3) was > 100 µM (inactive).

— ChEMBL document CHEMBL1201862, “PubChem BioAssay data set” (2004)
